Assay results: US9328112B2, “Tetracyclic CDK9 kinase inhibitors” (AbbVie Inc., priority 2014, dated 2016)

How the values were obtained:
[1] = test system: H929 cells; test: Cell viability assay (Cell TiterGlo); assay type: cell-based; settings: Homo sapiens, NCI-H929, 24 hours at 37° C., Cell TiterGlo luminescence
Protocol: The cell viability assay was performed using H929 cells. Cells were seeded in 96-well plates at 10,000 cells/well and, after overnight incubation, treated with compounds in a dose response of 3-fold dilutions from 10 μM to 0.005 μM ([…], 0.1% final DMSO concentration). After 24 hours at 37° C., cell viability was measured using Cell TiterGlo reagent (Promega) with a luminescence reader.

[2] = biological target: CDK9/Cyclin T1 (Homo sapiens (Human), UniProt P50750); test: CDK9 enzyme assay (LANCE ULight TR-FRET kinase assay); assay type: biochemical; settings: 1000 μM ATP, 100 nM ULight MBP, kinase reaction 1 hour
Protocol: CDK9 enzyme activities were measured using LANCE ULight TR-FRET kinase assay reagents (PerkinElmer, Waltham, Mass.). Compounds were diluted in 100% DMSO then diluted with 1:10 in serine/threonine kinase assay buffer containing 20 mM HEPES, 10 mM MgCl2, […], and 0.0075% Triton X-100. Equal volume of the compound dilutions was added to a final reaction mixture containing LANCE detection buffer (PerkinElmer CR97-100), 100 nM ULight MBP (PerkinElmer TRF0109M), 1000 μM ATP, and CDK9/Cyclin T1 (Carna Biosciences 04-110). The kinase reaction was carried out for 1 hour before addition of stopping buffer to a final of 20 mM EDTA and 0.5 nM of LANCE Ultra Europium anti-phospho-MBP antibody (PerkinElmer TRF0201M) in LANCE detection buffer. The reaction was incubated for 1 hour and the signal was read in Envision in TR-FRET mode (excitation at 320 nm and emission at 615/665 nm).

Chain of CDK9/Cyclin T1 (P50750 whole entry): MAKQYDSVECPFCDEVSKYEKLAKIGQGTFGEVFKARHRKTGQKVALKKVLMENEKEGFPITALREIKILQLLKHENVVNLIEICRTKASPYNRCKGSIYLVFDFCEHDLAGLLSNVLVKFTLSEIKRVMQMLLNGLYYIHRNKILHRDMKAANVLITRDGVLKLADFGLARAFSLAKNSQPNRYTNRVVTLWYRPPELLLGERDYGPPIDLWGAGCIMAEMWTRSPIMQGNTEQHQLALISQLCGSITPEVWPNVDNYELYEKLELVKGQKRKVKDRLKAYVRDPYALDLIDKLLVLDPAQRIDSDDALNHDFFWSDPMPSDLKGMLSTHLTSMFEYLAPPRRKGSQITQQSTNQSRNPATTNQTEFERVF
Chain of CDK9/Cyclin T1 (O60563 whole entry partner): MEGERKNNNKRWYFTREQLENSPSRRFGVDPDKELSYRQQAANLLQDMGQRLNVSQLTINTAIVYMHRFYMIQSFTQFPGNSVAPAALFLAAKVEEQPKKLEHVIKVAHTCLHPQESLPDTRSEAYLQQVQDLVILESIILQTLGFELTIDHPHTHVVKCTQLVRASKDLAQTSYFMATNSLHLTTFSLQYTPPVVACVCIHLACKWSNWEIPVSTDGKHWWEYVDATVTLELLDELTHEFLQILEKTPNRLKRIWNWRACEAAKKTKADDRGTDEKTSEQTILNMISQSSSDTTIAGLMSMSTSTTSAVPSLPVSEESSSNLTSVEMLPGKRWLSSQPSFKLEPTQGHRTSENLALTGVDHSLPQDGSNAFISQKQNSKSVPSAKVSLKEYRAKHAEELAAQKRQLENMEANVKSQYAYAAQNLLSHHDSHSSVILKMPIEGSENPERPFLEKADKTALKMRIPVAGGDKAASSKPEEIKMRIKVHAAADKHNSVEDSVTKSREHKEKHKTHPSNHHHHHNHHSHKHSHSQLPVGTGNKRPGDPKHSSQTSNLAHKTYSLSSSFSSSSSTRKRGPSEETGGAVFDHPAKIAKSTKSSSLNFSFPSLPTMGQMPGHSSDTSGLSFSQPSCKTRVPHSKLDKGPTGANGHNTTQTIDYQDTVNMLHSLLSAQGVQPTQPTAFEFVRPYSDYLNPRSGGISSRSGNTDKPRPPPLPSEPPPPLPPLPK

Row | Compound | IC50 [1] | IC50 [2]
1 | CN1Cc2c(C3=CCN(C4CC(CC(=O)O)C4)CC3)[nH]c3ncc(F)c(c23)-c2cc(F)ccc21 (stereo not shown) [Example 192, {3-[4-(1,10-difluoro-7-methyl-6,7-dihydro-4H-3,4,7-triazadibenzo[cd,f]azulen-5-yl)-3,6-dihydropyridin-1(2H)-yl]cyclobutyl}acetic acid] | 27 nM | 79 nM
2 | CC[C@H]1c2c(C3=CCN([C@H]4C[C@@H](C(=O)O)C4)CC3)[nH]c3nccc(c23)-c2cc(F)ccc2N1C [Example 187, cis-3-{4-[(6S)-6-ethyl-10-fluoro-7-methyl-6,7-dihydro-4H-3,4,7-triazadibenzo[cd,f]azulen-5-yl]-3,6-dihydropyridin-1(2H)-yl}cyclobutanecarboxylic acid] | 15 nM | 110 nM
3 | CCC[C@H](NC1CC=C(c2[nH]c3nccc4c3c2CN(C)c2ccc(F)cc2-4)CC1)C(=O)O (stereo partly drawn) [Example 39, N-[4-(10-fluoro-7-methyl-6,7-dihydro-4H-3,4,7-triazadibenzo[cd,f]azulen-5-yl)cyclohex-3-en-1-yl]-L-norvaline] | 99 nM | 130 nM
4 | CN1Cc2c(C3=CCN(CC(=O)O)CC3(C)C)[nH]c3nccc(c23)-c2cc(F)ccc21 [Example 111, [4-(10-fluoro-7-methyl-6,7-dihydro-4H-3,4,7-triazadibenzo[cd,f]azulen-5-yl)-3,3-dimethyl-3,6-dihydropyridin-1(2H)-yl]acetic acid] | 5500 nM | 1600 nM
5 | CN1Cc2c(C3=CCN([C@H]4CC[C@H](CC(=O)O)CC4)CC3)[nH]c3nccc(c23)-c2cc(F)ccc21 [Example 130, {trans-4-[4-(10-fluoro-7-methyl-6,7-dihydro-4H-3,4,7-triazadibenzo[cd,f]azulen-5-yl)-3,6-dihydropyridin-1(2H)-yl]cyclohexyl}acetic acid] | 70 nM | 64 nM
6 | CN1Cc2c(-c3ccc(CC(=O)O)cc3)[nH]c3nccc(c23)-c2cc(F)ccc21 [Example 81, [4-(10-fluoro-7-methyl-6,7-dihydro-4H-3,4,7-triazadibenzo[cd,f]azulen-5-yl)phenyl]acetic acid] | 790 nM | 68 nM
7 | CN1Cc2c(C3=CCNCC3)[nH]c3ncc(F)c(c23)-c2cc(F)ccc21 [Example 48, 1,10-difluoro-7-methyl-5-(1,2,3,6-tetrahydropyridin-4-yl)-6,7-dihydro-4H-3,4,7-triazadibenzo[cd,f]azulene] | 20 nM | 27 nM
8 | CN1Cc2c(C3=CCN([C@H]4CC[C@@H](CC(=O)O)CC4)CC3)[nH]c3nccc(c23)-c2cc(F)ccc21 [Example 124, {cis-4-[4-(10-fluoro-7-methyl-6,7-dihydro-4H-3,4,7-triazadibenzo[cd,f]azulen-5-yl)-3,6-dihydropyridin-1(2H)-yl]cyclohexyl}acetic acid] | 88 nM | 48 nM
9 | CN1Cc2c(C3=CCN(C4CCC(=CC(=O)O)CC4)CC3)[nH]c3nccc(c23)-c2cc(F)ccc21 (stereo not shown) [Example 177, {4-[4-(10-fluoro-7-methyl-6,7-dihydro-4H-3,4,7-triazadibenzo[cd,f]azulen-5-yl)-3,6-dihydropyridin-1(2H)-yl]cyclohexylidene}acetic acid] | 120 nM | 58 nM
10 | CN1Cc2c(C3=CCC(N[C@@H](CO)C(=O)O)CC3)[nH]c3nccc(c23)-c2cc(F)ccc21 (stereo partly drawn) [Example 38, N-[4-(10-fluoro-7-methyl-6,7-dihydro-4H-3,4,7-triazadibenzo[cd,f]azulen-5-yl)cyclohex-3-en-1-yl]-L-serine] | 270 nM | 91 nM
11 | CN1Cc2c(C3=CCN([C@H]4CC[C@H](C(=O)O)CC4)CC3)[nH]c3ncc(F)c(c23)-c2ccccc21 [Example 181, trans-4-[4-(1-fluoro-7-methyl-6,7-dihydro-4H-3,4,7-triazadibenzo[cd,f]azulen-5-yl)-3,6-dihydropyridin-1(2H)-yl]cyclohexanecarboxylic acid] | 12 nM | 63 nM
